Measured values published in patent US20090142369A1, “Method for preventing skin-cellular injury by using green algae extract and cosmetic composition containing green algae extract” (priority 2007, published 2009).

System: fibroblasts
Experiment: protective effects on UV-induced cytotoxicity (fibroblast survival rates)
Type: cell-based, human
Experimental: Green algae extracts (20 mg/ml and 10 mg/ml), Vitamin C, and Vitamin E treated fibroblasts are taken as subjects of the present experiment. The fibroblast survival rates are analyzed after 24, 48 and 72 hours of UV exposure and the results are quantified in the histogram.

Row | Compound | fibroblast survival rate, as % of non-UV-exposed control (Vitamin C 0.15 mM, after 24 hours of UV exposure) | fibroblast survival rate, as % of non-UV-exposed control (Vitamin C 0.15 mM, after 48 hours of UV exposure) | fibroblast survival rate, as % of non-UV-exposed control (Vitamin C 0.15 mM, after 72 hours of UV exposure) | fibroblast survival rate, as % of non-UV-exposed control (Vitamin E 25 μM, after 24 hours of UV exposure) | fibroblast survival rate, as % of non-UV-exposed control (Vitamin E 25 μM, after 48 hours of UV exposure) | fibroblast survival rate, as % of non-UV-exposed control (Vitamin E 25 μM, after 72 hours of UV exposure)
1 | O=C1O[C@H]([C@@H](O)CO)C(O)=C1O [Vitamin C] | about 53% | ~29% | ~22% | – | – | –
2 | Vitamin E | – | – | – | about 49% | ~27% | ~23%
